Source: US5942495A, “Antibiotics” (BTG International Limited, priority 1997, dated 1999)
In brackets after ≈: the same amount, converted by molar mass. Read-outs that look alike come from different tables or passages of the source.

Columns and labels:
human erythrocytes = test: In vitro toxicity (haemolysis of human erythrocytes); type: cell-based; conditions: 30 minutes at 37° C.
Description: (§1) Toxicity of compounds in vitro against animal cells was determined using standard for polyene macrolides procedure, by the determination of the degree of haemolysis of human erythrocytes. Human erythrocytes isolated from fresh, citrated human blood were washed twice with cold saline. The cells were diluted 250 times with saline and equilibrated for 30 minutes at 37° C. Samples of erythrocytes were incubated with various concentrations of antibiotics (the base solution in DMF) for 30 minutes at 37° C. After centrifugation the lysis of erythrocytes was assessed by determination of the haemoglobin released to the solution. Optical density of the supernatant was measured at […]. The results were expressed by EH50 value, as concentration of antibiotic at which 50% of hemolysis occurred. The values of EH50 were read from a curve relating the degree of hemolysis with antibiotic dose.

[1] = system: Candida albicans ATCC 262778; test: In vitro antifungal activity (growth inhibition, turbidimetric, liquid Sabouraud medium); type: cell-based; conditions: for IC50 (concentration inhibiting growth of fungi by 50%): 24 hours at 30° C., liquid Sabouraud medium
Description: The antifungal activity of compounds was determined following the standard for polyene macrolide procedure. The liquid Sabouraud medium was inoculated with 10^4 cells/ml of test organism Candida albicans ATCC 262778 and incubated for 24 hours at 30° C. with the tested antibiotic (serial dilutions). Amphotericin B was used as the reference. Compounds were dissolved in DMF and suitable amounts of the solutions were added to the medium. Turbidimetric method (660 nm) was applied to determine the degree of growth inhibition. The concentration of antibiotic at which the growth of fungi was inhibited by 50% was determined from the dose response curve. The obtained IC50 value characterized antifungal activity of the compound.

[2] = In vitro toxicity (haemolysis of human erythrocytes); type: cell-based; conditions: human, erythrocytes, 30 minutes at 37° C., read-out: EH50 (concentration at which 50% of hemolysis occurred)
Description: as §1

Candida albicans = test: Chemotherapeutic efficacy, systemic murine candidose model; type: in vivo; conditions: 840 h, intravenous, twice a day, 5 days, female Swiss Webster mice
Description: Candida albicans was grown overnight in Sabouraud dextrose broth at room temperature. The fungal cells were centrifuged, washed twice with 0.9% solution of sodium chloride, and suspended in physiological salt solution. Female Swiss Webster mice of 25 g weight, were injected intravenously with 10^5 cells of Candida in 0.2 ml of 0.9% sodium chloride solution. Initially, the infection was systemic, but by 2 to 3 days it was localized to the kidneys. Untreated animals usually died between 7 to 14 days post-infection. Three days post-infection, animals were treated intravenously, twice a day, for 5 consecutive days with a 5 to 6 hours interval. Preparation was administered as a solution in 5% glucose. […] After this time, the surviving animals were sacrificed, their kidneys were removed, homogenized in sterile water, and the homogenate was placed on Sabouraud dextrose agar, and the grown colonies of Candida were counted. […] The dose, called ED50, was calculated using a method given in J.Hyg.

Solubility = type: physicochemical
Acute toxicity (LD50) = conditions: mouse, in vivo, iv
Description: (§3) Various doses of the tested compound, and for comparison, amphotericin B in form of Fungizone, dissolved in 5% glucose were given intravenously to the animals. The administered volume of the solution was 0.5 ml. 0.5 ml of 5% solution of glucose was administered to mice as a control. Every dose of both preparations was administered to 5 mice. […] Next, the animals were killed, and some serum indexes were determined.

[3] = system: Swiss Webster female mice; test: Serum indexes after acute toxicity study; type: in vivo; conditions: in comparison with the control (5% glucose), after 7 days
Description: as §3

[4] = In vivo toxicity, maximum tolerated dose (MTD); conditions: mouse, in vivo, Balb/c mice
Description: (§2) In vivo toxicity was determined for methyl ester of N-methyl-N-D-fructosylamphotericin B L-aspartate as the maximum tolerated dose (MTD), and as the acute toxicity (LD50). To determine MTD dose the compound was dissolved in 5% solution of glucose, and administered intravenously and intraperitonealy to Balb/c mice in single and multiple doses.

Balb/c mice = test: In vivo toxicity, maximum tolerated dose (MTD); conditions: intraperitoneal 100 mg/kg for 5 days, 20 days of observation
Description: as §2

Molecule: N-methyl-N-fructosyltrychomycin methyl ester [Example VI]
- EH50 (concentration at which 50% of hemolysis occurred) (human erythrocytes): ≈ 165 μg/ml
- IC50 (concentration inhibiting growth of fungi by 50%) [1]: 0.013 µg/mL

Molecule: N-methyl-N-D-fructosylcandidin D methyl ester [Example V]
- EH50 (concentration at which 50% of hemolysis occurred) (human erythrocytes): ≈ 180 μg/ml
- IC50 (concentration inhibiting growth of fungi by 50%) [1]: 0.01 µg/mL

Molecule: C[C@@H]1[C@H](O)[C@@H](C)/C=C/C=C/C=C/C=C/C=C/C=C/C=C/[C@H](O[C@@H]2O[C@H](C)[C@@H](O)[C@H](N)[C@@H]2O)C[C@@H]2O[C@](O)(C[C@@H](O)C[C@@H](O)[C@H](O)CC[C@@H](O)C[C@@H](O)CC(=O)O[C@H]1C)C[C@H](O)[C@H]2C(=O)O [amphotericin B, reference compound]
- HC50 at 0.5 h [2]: 1.5 µg/mL

Molecule: N-methyl-N-D-fructosylamphotericin B methyl ester [Example IX]
- IC50 (concentration inhibiting growth of fungi by 50%) [1]: 6.0 µg/mL

Molecule: COC(=O)[C@H]1[C@@H]2C[C@@H](O[C@@H]3O[C@H](C)[C@@H](O)[C@H](N(C)CC4(O)OC[C@@H](O)[C@@H](O)[C@@H]4O)[C@@H]3O)/C=C/C=C/C=C/C=C/C=C/C=C/C=C/[C@H](C)[C@@H](O)[C@@H](C)[C@H](C)OC(=O)C[C@H](O)C[C@H](O)CC[C@@H](O)[C@H](O)C[C@H](O)C[C@](O)(C[C@@H]1O)O2 (single isomer, unassigned) [Example VIII, N-methyl-N-D-fructosylamphotericin B methyl ester]
- EH50 (concentration at which 50% of hemolysis occurred) (human erythrocytes; 30 min): above 200 μg/ml
- IC50 (concentration inhibiting growth of fungi by 50%) [1]: 0.42 µg/mL

Molecule: N-methyl-N-D-fructosylvacidin methyl ester [Example IV]
- EH50 (concentration at which 50% of hemolysis occurred) (human erythrocytes): 170 µg/mL
- IC50 (concentration inhibiting growth of fungi by 50%) [1]: 0.01 µg/mL

Molecule: COC(=O)[C@H]1[C@@H]2C[C@@H](O[C@@H]3O[C@H](C)[C@@H](O)[C@H](N(C)CC4(O)OC[C@@H](O)[C@@H](O)[C@@H]4O)[C@@H]3O)/C=C/C=C/C=C/C=C/C=C/C=C/C=C/[C@H](C)[C@@H](O)[C@@H](C)[C@H](C)OC(=O)C[C@H](O)C[C@H](O)CC[C@@H](O)[C@H](O)C[C@H](O)C[C@](O)(C[C@@H]1O)O2 (stereo partly drawn) [Example X, methyl ester of N-methyl-N-D-fructosylamphotericin B L-aspartate]
- ED50 (Candida albicans; 5 weeks observation, read-out: ED50 based on the survival): 2.3 mg/kg
- ED50 (Candida albicans; clearance of Candida from kidneys, read-out: ED50 based on the kidneys clearance): 6 mg/kg
- solubility in N,N-dimethylformamide, dimethylsulphoxide and 5% water solution of glucose (Solubility; DMF, DMSO, 5% aqueous glucose): soluble
- solubility in water (Solubility; water): very well soluble in water
- EH50 (concentration at which 50% of hemolysis occurred) (human erythrocytes; 30 min): above 350 μg/ml
- LD50 at 168 h (Acute toxicity (LD50)): 400 mg/kg
- IC50 ([1]; ATCC262778, 24 h, read-out: IC50 (concentration inhibiting growth of fungi by 50%)): 0.125 µg/mL (≈ 0.112 µM)
- level of aspartate aminotransferase [3]: No increased level
- level of creatinine [3]: No increased level
- MTD ([4]; ip, intraperitoneal, for 5 days, read-out: maximum multiple tolerated dose): > 100 mg/kg
- MTD ([4]; ip, intraperitoneal, single dose, in 5% glucose, read-out: maximum single tolerated dose (MTD)): > 200 mg/kg
- MTD ([4]; iv, single dose, in 5% glucose, read-out: maximum single tolerated dose (MTD)): 100 mg/kg
- toxic effects (Balb/c mice): toxic effects were not observed

Molecule: N-methyl-N-D-fructosylnystatin methyl ester [Example III]
- EH50 (concentration at which 50% of hemolysis occurred) (human erythrocytes): above 300 μg/ml
- IC50 (concentration inhibiting growth of fungi by 50%) [1]: 6.8 µg/mL

Molecule: N-methyl-N-D-fructosylcandidin methyl ester [Example II]
- EH50 (concentration at which 50% of hemolysis occurred) (human erythrocytes): above 300 μg/ml
- IC50 (concentration inhibiting growth of fungi by 50%) [1]: 0.75 µg/mL

Molecule: N-methyl-N-D-fructosylamphotericin B methyl ester [Example VII]
- IC50 (concentration inhibiting growth of fungi by 50%) [1]: 0.42 µg/mL

Molecule: COC(=O)[C@H]1[C@@H]2C[C@@H](O[C@@H]3O[C@H](C)[C@@H](O)[C@H](N(C)CC4(O)OC[C@@H](O)[C@@H](O)[C@@H]4O)[C@@H]3O)/C=C/C=C/C=C/C=C/C=C/C=C/C=C/[C@H](C)[C@@H](O)[C@@H](C)[C@H](C)OC(=O)C[C@H](O)C[C@H](O)CC[C@@H](O)[C@H](O)C[C@H](O)C[C@](O)(C[C@@H]1O)O2 (single isomer, unassigned) [Example I, N-methyl-N-D-fructosylamphotericin B methyl ester]
- solubility (Solubility; under conditions of the haemolysis experiment, read-out: solubility limit (insoluble above)): ≤ 350 µg/mL
- HC50 at 0.5 h [2]: > 350 µg/mL
- IC50 (concentration inhibiting growth of fungi by 50%) [1]: 0.12 µg/mL
